Assay results: US6476030B1, “Pyrazolo-triazine derivatives as ligands for GABA receptors” (Merck Sharp & Dohme Ltd., priority 1998, dated 2002)

Compound Cn1ncnc1COc1nn2c(-c3ccccc3F)nncc2c1-c1cccc(C#N)c1 [Example 97, 3-(3-Cyanophenyl)-7-(2-fluorophenyl)-2-(2-methyl-2H-[1,2,4]triazol-3-ylmethoxy)pyrazolo[1,5-d][1,2,4]triazine] has a melting point of 194 to 196 °C.
For CCCn1ncnc1COc1nn2c(-c3ccccc3F)nncc2c1C(C)(C)C [Example 26, 3-(1,1-Dimethylethyl)-7-(2-fluorophenyl)-2-(2-propyl-2H-[1,2,4]triazol-3-ylmethoxy)pyrazolo[1,5-d][1,2,4]triazine], the melting point was 93 °C.
CCC(C)(C)c1c(OCc2ncnn2C)nn2c(-c3c(F)ccc(F)c3F)nncc12 [Example 43, 3-(1,1-Dimethylpropyl)-2-(2-methyl-2H-[1,2,4]triazol-3-ylmethoxy)-7-(2,3,6-trifluorophenyl)pyrazolo[1,5-d][1,2,4]triazine] showed a melting point of 122 to 125 °C.
Work on Fc1ccccc1-c1c(OCc2ccncn2)nn2c(-c3ccccc3F)nncc12 [Example 78, 3,7-bis(2-Fluorophenyl)-2-(pyrimidin-4-ylmethoxy)pyrazolo[1,5-d][1,2,4]triazine] yielded a melting point of 189 °C.
Work on Cn1ncnc1COc1nn2c(-c3ccc(F)cc3)nncc2c1-c1ccccc1F [Example 41, 3-(2-Fluorophenyl)-7-(4-fluorophenyl)-2-(2-methyl-2H-[1,2,4]-triazol-3-ylmethoxy)pyrazolo[1,5-d][1,2,4]triazine] yielded a melting point of 191 °C.
Cn1ncnc1COc1nn2c(-c3cnccn3)nncc2c1-c1ccccc1F [Example 31, 3-(2-Fluorophenyl)-2-(2-methyl-2H-[1,2,4]triazol-3-ylmethoxy)-7-(pyrazin-2-yl)pyrazolo[1,5-d][1,2,4]triazine] showed a melting point of 179 to 180 °C.
For Cn1ncnc1COc1nn2c(-c3ccoc3)nncc2c1-c1ccccc1F [Example 80, 3-(2-Fluorophenyl)-7-(furan-3-yl)-2-(2-methyl-2H-[1,2,4]triazol-3-ylmethoxy)pyrazolo[1,5-d][1,2,4]triazine], the melting point was 148 °C.
Compound Cn1ncnc1COc1nn2c(-c3ccccc3F)nncc2c1-c1cccc(F)c1F [Example 16, 3-(2,3-Difluorophenyl)-7-(2-fluorophenyl)2-(2-methyl-2H-[1,2,4]triazol-3-ylmethoxy)pyrazolo[1,5-d][1,2,4]triazine] has a melting point of 176 °C.
CCC(C)(C)c1c(OCc2ncnn2C)nn2c(-c3ccccc3F)nncc12 [Example 34, 3-(1,1-Dimethylpropyl)-7-(2-fluorophenyl)-2-(2-methyl-2H-[1,2,4]triazol-3-ylmethoxy)pyrazolo[1,5-d][1,2,4]triazine] gave a melting point of 89 to 91 °C.
